Measured values: the NIST ThermoML archive (doi:10.1016/j.jct.2005.02.014)

Assay: molar heat capacity at constant pressure
Details: 101.33 kPa, Crystal

[Gd+3].[Gd+3].[O-2].[O-2].[O-2] [gadolinium sesquioxide]
Details	molar heat capacity at constant pressure [J/K/mol]
5.34 K	4.24
5.84 K	5.88
6.65 K	6.66
8.48 K	4.7
10.16 K	3.95
11.17 K	3.51
11.58 K	3.33
13.24 K	3.19
13.72 K	3.18
14.69 K	3.17
15.56 K	3.2
15.84 K	3.18
16.98 K	3.47
17.06 K	3.5
18.14 K	3.76
18.46 K	3.8
19.29 K	4.28
19.86 K	4.28
20 K	4.32
20.63 K	4.51
21.24 K	4.73
21.97 K	5.08
22.65 K	5.27
23.31 K	5.65
23.91 K	5.87
24.66 K	6.36
25 K	6.55
25.22 K	6.67
26.02 K	7.26
26.08 K	7.21
26.79 K	7.55
27.33 K	7.65
27.99 K	7.92
28.5 K	8.29
29.64 K	8.93
30 K	9.163
31.19 K	9.927
32.73 K	10.96
34.3 K	11.95
35 K	12.42
35.9 K	13.02
37.53 K	13.85
39.19 K	14.85
40 K	15.35
40.87 K	15.9
42.55 K	17.06
44.25 K	18.21
45 K	18.7
45.96 K	19.33
47.7 K	20.45
49.45 K	21.55
50 K	21.9
51.21 K	22.67
52.99 K	23.75
54.78 K	24.86
56.58 K	26
58.39 K	27.1
60 K	28.03
60.22 K	28.16
62.05 K	29.26
63.89 K	30.33
65.75 K	31.37
67.61 K	32.46
69.47 K	33.54
70 K	33.85
71.35 K	34.62
73.23 K	35.69
75.12 K	36.68
77.01 K	37.74
78.91 K	38.79
80 K	39.37
80.81 K	39.79
82.72 K	40.83
83.39 K	41.24
84.63 K	41.9
85.99 K	42.64
86.55 K	42.9
88.47 K	43.84
88.8 K	44.12
90 K	44.63
90.39 K	44.82
91.62 K	45.57
92.32 K	45.88
93.14 K	46.35
93.67 K	46.53
94.25 K	46.87
94.44 K	46.97
94.91 K	47.23
96.18 K	47.87
96.86 K	48.18
97.27 K	48.4
98.12 K	48.9
98.79 K	49.39
100 K	50.12
100.06 K	50.15
100.11 K	50.21
100.72 K	50.42
102.65 K	51.08
102.97 K	51.17
104.58 K	51.98
105.83 K	52.6
106.52 K	53
108.46 K	54.02
108.7 K	54.13
110.4 K	54.87
111.58 K	55.27
112.35 K	55.75
114.3 K	56.56
114.46 K	56.66
116.25 K	57.42
117.35 K	57.9
118.2 K	58.29
120 K	58.58
120.15 K	58.66
120.24 K	58.72
122.11 K	59.91
123.15 K	60.56
124.07 K	60.93
126.02 K	61.79
126.04 K	61.82
127.98 K	62.72
128.94 K	63.08
129.95 K	63.54
131.83 K	64.33
131.91 K	64.31
133.87 K	65.17
134.73 K	65.5
135.84 K	65.98
137.64 K	66.69
137.81 K	66.76
139.77 K	67.58
140 K	67.66
140.55 K	67.86
141.74 K	68.33
143.47 K	69
143.71 K	69.08
145.68 K	69.88
146.39 K	70.15
147.65 K	70.61
149.31 K	71.26
149.62 K	71.38
151.6 K	72.1
152.23 K	72.33
153.57 K	72.82
155.16 K	73.39
155.55 K	73.55
157.52 K	74.24
158.09 K	74.43
159.5 K	74.94
160 K	75.12
161.02 K	75.46
161.47 K	75.6
163.45 K	76.3
163.95 K	76.42
165.43 K	76.95
166.88 K	77.42
167.41 K	77.62
169.38 K	78.25
169.82 K	78.4
171.36 K	78.94
172.76 K	79.32
173.34 K	79.5
175.32 K	80.12
175.7 K	80.25
